Columns and labels:
group of experts [1] = experiment: Modification of the sweet profile of a sucrose solution (sensory panel); assay type: in vivo; details: for Beginning of sweet impression (<2 sec) / Overall sweet impression / Sugar full flavour and taste: n=12
Excerpt: The taste profile of a 7 wt % aqueous sucrose solution was compared with by a group of experts (n=12) in each case with a specimen having an equivalent composition and additionally a 1.5% sucrose (B), 5 ppm, 7 ppm or 20 ppm hesperetin dihydrochalcone (I).

[2] = J. Chem. Senses 1979, 4(1), 35-47; cited from earlier work
group of experts [3] = experiment: Improvement of the taste profile of chicken flavour (sensory panel); assay type: in vivo; details: addition of 2 ppm; n=3
Excerpt: A group of experts (n=3) evaluated the influence on the taste profile of a chicken flavour with the typical descriptors of chicken meat note, boiled note, bony, light sour by the addition of 2 ppm hesperetin dihydrochalcone (I).

group of experts [4] = experiment: Intensification of the sweet impression of a sugar solution (sensory panel rating); assay type: in vivo
Excerpt: In order to quantify the intensification of the sweet impression, in each case the sweetness of a 5% sucrose solution was compared by a group of experts with a specimen containing 5% sucrose and 1 ppm, 5 ppm, 7 ppm or 10 ppm of the hesperetin dihydrochalcone (I) to be used according to the invention (rating: 1 [not sweet] to 10 [extremely sweet]). For comparison issues, the intensification of the sweet impression containing with a specimen containing 5% sucrose and 10 ppm or 25 ppm deoxy hesperetin dihydrochalcone is also included.
For the assessment, i.e. calculation of the intensification (in %) of the sweet impression in each case the average values of the assessments of the group of experts for the sucrose solution and the specimen for comparison containing sucrose and hesperetin dihydrochalcone (I) or deoxy hesperetin dihydrochalcone were used.

group of experts [5] = experiment: Modulation of the cooling-profile of WS-3 (sensory panel); assay type: in vivo; details: 1 ppm added to aqueous solution of 5 wt % sucrose and 4 ppm WS-3; n=5
Excerpt: A group of experts (n=5) evaluated the influence on the cooling profile of an aqueous solution containing 5 wt % sucrose and 4 ppm WS-3.

group of experts [6] = experiment: Bitter-reduction of a bitter substance solution (sensory panel rating); assay type: in vivo; details: for Bitter impression of bitter substance + compound (I) (average values): n=18
Excerpt: In order to quantify the decrease (i.e. the masking or reduction) in bitter impression in a specimen, the bitterness of a solution containing different bitter tasting substances in specific concentrations was compared by a group of experts (n=18) in each case with a specimen having an equivalent composition and additionally a specific concentration of hesperetin dihydrochalcone (I) (rating: 1 [not bitter] to 100 [extremely bitter]).
For the assessment, i.e. the calculation of the reduction (in %) of the bitter impression in each case the average values of the assessments of the group of experts for the respective bitter substance solution and the bitter substance solution also containing 10 ppm hesperetin dihydrochalcone (I) were used (*sign.lev. α=0.05). For comparison issues, the calculation of the reduction (in %) of the bitter impression for the respective bitter substance solution containing deoxy hesperetin dihydrochalcone is also included.

group of 30 experts = experiment: Intrinsic sweetness, two-alternative forced choice (2AFC) test; assay type: in vivo; details: 10 ppm in water, α=0.05
Excerpt: A group of 30 experts were asked in a two-alternative forced choice (2AFC) test to select the solution with the stronger sweet impression from a couple of solutions. The evaluated solutions-couples are selected from a group of solutions consisting of a solution of hesperetin dihydrochalcone (I) in water (20 ppm, 15 ppm, 12.5 ppm, and 10 ppm) and a 1.5 wt % aqueous sucrose solution.

[7] = in soft drinks; purity>90%; cited from earlier work
[8] = in the presence of acids; cited from earlier work
[9] = 7% Sucrose-solution + 1.5% Sucrose (=8.5% sucrose solution)
[10] = 7 wt % aqueous sucrose solution
[11] = 5% sucrose + 10 ppm test substance
[12] = 5% sucrose + 10 ppm test substance, rating 1 to 10

Molecule: OC[C@H]1O[C@@](CO)(O[C@H]2O[C@H](CO)[C@@H](O)[C@H](O)[C@H]2O)[C@@H](O)[C@@H]1O [Sucrose, sucrose, reference compound]
- Beginning of sweet impression (<2 sec) (group of experts [1]; [9]): 5.74
- Overall sweet impression (group of experts [1]; [9]): 6.36
- Sugar full flavour and taste (group of experts [1]; [9]): 5.17

Molecule: COc1ccc(CCC(=O)c2ccccc2O)cc1O [dihydrochalcone (2)]
- Taste (sweetening power) as presented in the publication [2]: intensively sweet tasting

Molecule: COc1ccc(CCC(=O)c2c(O)cccc2O)cc1O [dihydrochalcone (3)]
- Taste (sweetening power) as presented in the publication [2]: tasteless

Molecule: COc1ccc(CCC(=O)c2c(O)cc(O)cc2O)cc1O [hesperetin dihydrochalcone (I), 3-(3-Hydroxy-4-methoxy-phenyl)-1-(2,4,6-trihydroxyphenyl)propan-1-one]
- Beginning of sweet impression (<2 sec) (group of experts [1]; 7% Sucrose-solution + 5 ppm): 4.63
- Overall sweet impression (group of experts [1]; 7% Sucrose-solution + 5 ppm): 5.24
- Sugar full flavour and taste (group of experts [1]; 7% Sucrose-solution + 5 ppm): 4.26
- Beginning of sweet impression (<2 sec) (group of experts [1]; 7% Sucrose-solution + 7 ppm): 4.78
- Overall sweet impression (group of experts [1]; 7% Sucrose-solution + 7 ppm): 5.93
- Sugar full flavour and taste (group of experts [1]; 7% Sucrose-solution + 7 ppm): 4.42
- Beginning of sweet impression (<2 sec) (group of experts [1]; 7% Sucrose-solution + 20 ppm): 4.49
- Overall sweet impression (group of experts [1]; 7% Sucrose-solution + 20 ppm): 4.90
- Sugar full flavour and taste (group of experts [1]; 7% Sucrose-solution + 20 ppm): 4.11
- Effect on the overall sweet impression (in words) (group of experts [1]; [10]): increases
- Influence on the beginning of sweet impression (sweet impact) and the perceived sugar full flavour and taste (in words) (group of experts [1]; [10]): positive influence
- Influence on the taste profile of chicken flavour (chicken meat note, boiled note, bony, light sour) (group of experts [3]): without a negative influence
- Mouth fullness of chicken flavour (in words) (group of experts [3]): remarkably enhance
- Intensification of the sweet impression (group of experts [4]; 5% sucrose + 1 ppm test substance): 14.1%
- Sweet impression (1-10) Specimen (Sucrose + Test substance) (group of experts [4]; 5% sucrose + 1 ppm test substance, rating 1 [not sweet] to 10 [extremely sweet]): 6.1
- Intensification of the sweet impression (group of experts [4]; 5% sucrose + 5 ppm test substance): 32.6%
- Sweet impression (1-10) Specimen (Sucrose + Test substance) (group of experts [4]; 5% sucrose + 5 ppm test substance, rating 1 to 10): 7.1
- Intensification of the sweet impression (group of experts [4]; 5% sucrose + 7 ppm test substance): 35.7%
- Sweet impression (1-10) Specimen (Sucrose + Test substance) (group of experts [4]; 5% sucrose + 7 ppm test substance, rating 1 to 10): 7.3
- Intensification of the sweet impression (group of experts [4]; [11]): 38.6%
- Sweet impression (1-10) Specimen (Sucrose + Test substance) (group of experts [4]; [12]): 7.8
- Intensification of the sweet impression compared to 10 ppm deoxy hesperetin dihydrochalcone (in words) (group of experts [4]; 5 ppm, 5% sucrose): clearly higher
- Intensification of the sweet impression compared to the same amount of deoxy hesperetin dihydrochalcone (in words) (group of experts [4]; 10 ppm, 5% sucrose): remarkable intensification
- Cooling effect (in words) (group of experts [5]): slightly improvement
- Perception of cooling impression (in words) (group of experts [5]): faster
- Reduction in bitter impression by adding 10 ppm of compound (I) (group of experts [6]; 5 ppm Chininhydrochloride): −25.0%
- Bitter impression of bitter substance + compound (I) (average values) (group of experts [6]; 5 ppm Chininhydrochloride + 10 ppm compound (I), rating 1 to 100): 29.05
- Reduction of the bitter impression of Chininhydrochloride (in words) (group of experts [6]; 10 ppm): remarkable reduction
- Bitter impression of bitter substance + compound (I) (average values) (group of experts [6]; 100 ppm Naringin + 10 ppm compound (I), rating 1 to 100): 46.54
- Reduction in bitter impression by adding 10 ppm of compound (I) (group of experts [6]; 100 ppm Naringin, * sign.lev. α=0.05): −21.5%*
- Bitter impression of bitter substance + compound (I) (average values) (group of experts [6]; 250 ppm Salicin + 10 ppm compound (I), rating 1 to 100): 51.40
- Reduction in bitter impression by adding 10 ppm of compound (I) (group of experts [6]; 250 ppm Salicin, * sign.lev. α=0.05): −17.6%*
- Reduction in bitter impression by adding 10 ppm of compound (I) (group of experts [6]; 300 ppm Theobromine): −12.4%
- Bitter impression of bitter substance + compound (I) (average values) (group of experts [6]; 300 ppm Theobromine + 10 ppm compound (I), rating 1 to 100): 45.01
- Reduction in bitter impression by adding 10 ppm of compound (I) (group of experts [6]; 500 ppm Coffeine): −13.8%
- Bitter impression of bitter substance + compound (I) (average values) (group of experts [6]; 500 ppm Coffeine + 10 ppm compound (I), rating 1 [not bitter] to 100 [extremely bitter]): 37.46
- Reduction of the bitter impression of Naringin compared to deoxy hesperetin dihydrochalcone (in words) (group of experts [6]; Naringin, 10 ppm versus 50 ppm deoxy hesperetin dihydrochalcone): notable increase in the reduction of the bitter impression
- Sweet impression compared to the 1.5 wt % aqueous sucrose solution (group of 30 experts): remarkably weaker

Molecule: C=C1C[C@@]23CC[C@H]4[C@@](C)(CCC[C@@]4(C)C(=O)O[C@@H]4O[C@H](CO)[C@@H](O)[C@H](O)[C@H]4O)[C@@H]2CC[C@]1(O[C@@H]1O[C@H](CO)[C@@H](O)[C@H](O[C@@H]2O[C@H](CO)[C@@H](O)[C@H](O)[C@H]2O)[C@H]1O[C@@H]1O[C@H](CO)[C@@H](O)[C@H](O)[C@H]1O)C3 [rebaudioside A]
- Concentration necessary to achieve a sweetness corresponding to a concentration of sucrose of 10% by weight [7]: 400-600 ppm

Molecule: deoxy hesperetin dihydrochalcone [reference compound]
- Intensification of the sweet impression (group of experts [4]; [11]): 21.2%
- Sweet impression (1-10) Specimen (Sucrose + Test substance) (group of experts [4]; [12]): 6.4
- Intensification of the sweet impression (group of experts [4]; 5% sucrose + 25 ppm test substance): 42%
- Sweet impression (1-10) Specimen (Sucrose + Test substance) (group of experts [4]; 5% sucrose + 25 ppm test substance, rating 1 to 10): 6.9
- Reduction in bitter impression by adding 50 ppm of deoxy hesperetin dihydrochalcone (group of experts [6]; 5 ppm Chininhydrochloride): +10.7%
- Reduction of the bitter impression of Chininhydrochloride (in words) (group of experts [6]; 50 ppm): no reduction
- Amount necessary, as factor of the amount of hesperetin dihydrochalcone (I), to obtain a similar reduction of the bitter impression (group of experts [6]; 50 ppm versus 10 ppm): 5
- Reduction in bitter impression by adding 50 ppm of deoxy hesperetin dihydrochalcone (group of experts [6]; 100 ppm Naringin): −6.6%
- Reduction in bitter impression by adding 50 ppm of deoxy hesperetin dihydrochalcone (group of experts [6]; 250 ppm Salicin): −15.2%
- Reduction in bitter impression by adding 50 ppm of deoxy hesperetin dihydrochalcone (group of experts [6]; 500 ppm Coffeine): −11.3%

B1: miraculin (protein, UniProt P13087 30-220, looked up)
Miraculin: DSAPNPVLDIDGEKLRTGTNYYIVPVLRDHGGGLTVSATTPNGTFVCPPRVVQTRKEVDHDRPLAFFPENPKEDVVRVSTDLNINFSAFMPCRWTSSTVWRLDKYDESTGQYFVTIGGVKGNPGPETISSWFKIEEFCGSGFYKLVFCPTVCGSCKVKCGDVGIYIDQKGRRRLALSDKPFAFEFNKTVYF
notes: protein that in the presence of acids transforms the sour impression into a sweet taste impression
- Duration of the effect (sour impression transformed into sweet taste impression) [8]: 2 to 4 h

Reference: patent US10702484B2, “Use of 3-(3-hydroxy-4-methoxy-phenyl)-1-(2,4,6-trihydroxy-phenyl) propan-1-one” (SYMRISE AG, priority 2016, dated 2020)
